PubChem BioAssay AID1963827 (Molecular Pharmacology Branch, DTP, NCI, 2024)
pIC50: −log10 of the molar value.

Test system: 994946-033-R-J1-PDC complex spheroid viability
Experiment: Anticancer human tumor 994946-033-R-J1-PDC patient-derived melanoma cell line growth inhibition [POLQ]
Settings: for pIC50: curve of first compound; for viability, T/C: stronger effect = lower value
In short: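 Patient-derived tumour cells were co-cultured with HUVEC and mesenchymal stem cells as multicellular spheroids at 37 °C. They were treated with POLQ inhibitors (novobiocin, ART-558, RP6685) alone or combined with other agents. Top concentrations were at or near clinical Cmax (otherwise 10 microM; SN-38 at 1 microM), decreasing in half-log steps.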

[1] = second compound 0.0316 µM, first compound 0.0316 µM
[2] = second compound 0.0316 µM, first compound 0.1 µM
[3] = second compound 0.0316 µM, first compound 0.316 µM
[4] = second compound 0.0316 µM, first compound 1 µM
[5] = second compound 0.0316 µM, first compound 3.16 µM
[6] = second compound 0.0316 µM, first compound 10 µM
[7] = second compound 0.1 µM, first compound 0.0316 µM
[8] = second compound 0.1 µM, first compound 0.1 µM
[9] = second compound 0.1 µM, first compound 0.316 µM
[10] = second compound 0.1 µM, first compound 1 µM
[11] = second compound 0.1 µM, first compound 3.16 µM
[12] = second compound 0.1 µM, first compound 10 µM
[13] = second compound 0.316 µM, first compound 0.0316 µM
[14] = second compound 0.316 µM, first compound 0.1 µM
[15] = second compound 0.316 µM, first compound 0.316 µM
[16] = second compound 0.316 µM, first compound 1 µM
[17] = second compound 0.316 µM, first compound 3.16 µM
[18] = second compound 0.316 µM, first compound 10 µM
[19] = second compound 1 µM, first compound 0.0316 µM
[20] = second compound 1 µM, first compound 0.1 µM
[21] = second compound 1 µM, first compound 0.316 µM
[22] = second compound 1 µM, first compound 1 µM
[23] = second compound 1 µM, first compound 3.16 µM
[24] = second compound 1 µM, first compound 10 µM
[25] = second compound 3.16 µM, first compound 0.0316 µM
[26] = second compound 3.16 µM, first compound 0.1 µM
[27] = second compound 3.16 µM, first compound 0.316 µM
[28] = second compound 3.16 µM, first compound 1 µM
[29] = second compound 3.16 µM, first compound 3.16 µM
[30] = second compound 3.16 µM, first compound 10 µM
[31] = second compound 10 µM, first compound 0.0316 µM
[32] = second compound 10 µM, first compound 0.1 µM
[33] = second compound 10 µM, first compound 0.316 µM
[34] = second compound 10 µM, first compound 1 µM
[35] = second compound 10 µM, first compound 3.16 µM
[36] = second compound 10 µM, first compound 10 µM
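Further: spheroids exposed to drugs for 7 days.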
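Wherever viability, T/C is given: 100% = DMSO vehicle treated spheroids.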

Compound `O=C(Nc1ccc(O)c(NS(=O)(=O)c2ccc(F)cc2)c1)c1ccc(-c2ccccc2)cc1` + COC1C(OC(N)=O)C(O)C(Oc2ccc3c(O)c(NC(=O)c4ccc(O)c(CC=C(C)C)c4)c(=O)oc3c2C)OC1(C)C has a pIC50 (second compound 0.0316 µM) of 5.18, a pIC50 (second compound 0.1 µM) of 5.20 and a pIC50 (second compound 0.316 µM) of 5.22. It also gave a pIC50 (second compound 1 µM) of 5.20, a pIC50 (second compound 3.16 µM) of 5.26 and a pIC50 (second compound 10 µM) of 5.34. For the same compound, the viability, T/C [1] was 87.9%, the viability, T/C [2] was 103% and the viability, T/C [3] was 101%. The viability, T/C [4] was 111%, the viability, T/C [5] was 93% and the viability, T/C [6] was 25.9%. For the same compound, the viability, T/C [7] was 96%, the viability, T/C [8] was 105% and the viability, T/C [9] was 80.2%. For the same compound, the viability, T/C [10] was 94.4%, the viability, T/C [11] was 82.6% and the viability, T/C [12] was 27.9%. The viability, T/C [13] was 99%, the viability, T/C [14] was 123% and the viability, T/C [15] was 84.3%. It also gave a viability, T/C [16] of 87.3%, a viability, T/C [17] of 85.1% and a viability, T/C [18] of 27.6%. For the same compound, the viability, T/C [19] was 100%, the viability, T/C [20] was 81.8% and the viability, T/C [21] was 109%. The viability, T/C [22] was 111%, the viability, T/C [23] was 78% and the viability, T/C [24] was 31.1%. The viability, T/C [25] was 97.8%, the viability, T/C [26] was 103% and the viability, T/C [27] was 92.3%. For the same compound, the viability, T/C [28] was 83.5%, the viability, T/C [29] was 66.2% and the viability, T/C [30] was 32.4%. It also gave a viability, T/C [31] of 82.2%, a viability, T/C [32] of 102% and a viability, T/C [33] of 84.5%. For the same compound, the viability, T/C [34] was 129%, the viability, T/C [35] was 60.1% and the viability, T/C [36] was 28.5%.
`O=C(c1cc(Cc2n[nH]c(=O)c3ccccc23)ccc1F)N1CCN(C(=O)C2CC2)CC1` + COC1C(OC(N)=O)C(O)C(Oc2ccc3c(O)c(NC(=O)c4ccc(O)c(CC=C(C)C)c4)c(=O)oc3c2C)OC1(C)C gave a pIC50 (second compound 0.0316 µM) of 5.32, a pIC50 (second compound 0.1 µM) of 5.34 and a pIC50 (second compound 0.316 µM) of 5.30. The pIC50 (second compound 1 µM) was 5.39, the pIC50 (second compound 3.16 µM) was 5.32 and the pIC50 (second compound 10 µM) was 5.38. The viability, T/C [1] was 56.5%, the viability, T/C [2] was 91.1% and the viability, T/C [3] was 100%. It also gave a viability, T/C [4] of 87.1%, a viability, T/C [5] of 57.7% and a viability, T/C [6] of 35.9%. The viability, T/C [7] was 110%, the viability, T/C [8] was 81.5% and the viability, T/C [9] was 87.1%. The viability, T/C [10] was 73.5%, the viability, T/C [11] was 72.4% and the viability, T/C [12] was 22.2%. For the same compound, the viability, T/C [13] was 93.2%, the viability, T/C [14] was 82.2% and the viability, T/C [15] was 86.4%. It also gave a viability, T/C [16] of 67.7%, a viability, T/C [17] of 69.8% and a viability, T/C [18] of 28.9%. It also gave a viability, T/C [19] of 99.1%, a viability, T/C [20] of 84.5% and a viability, T/C [21] of 90.2%. For the same compound, the viability, T/C [22] was 69.1%, the viability, T/C [23] was 58.1% and the viability, T/C [24] was 28.1%. For the same compound, the viability, T/C [25] was 84.7%, the viability, T/C [26] was 83.2% and the viability, T/C [27] was 88.4%. It also gave a viability, T/C [28] of 76.6%, a viability, T/C [29] of 60.4% and a viability, T/C [30] of 32.2%. The viability, T/C [31] was 95.5%, the viability, T/C [32] was 79.2% and the viability, T/C [33] was 86%. For the same compound, the viability, T/C [34] was 69.9%, the viability, T/C [35] was 60.8% and the viability, T/C [36] was 27.1%.
With `CC(=O)O[C@H]1C(=O)[C@@]2(C)[C@H]([C@H](OC(=O)c3ccccc3)[C@]3(O)C[C@H](OC(=O)[C@H](O)[C@@H](NC(=O)c4ccccc4)c4ccccc4)C(C)=C1C3(C)C)[C@]1(OC(C)=O)CO[C@@H]1C[C@@H]2O` + COC1C(OC(N)=O)C(O)C(Oc2ccc3c(O)c(NC(=O)c4ccc(O)c(CC=C(C)C)c4)c(=O)oc3c2C)OC1(C)C the pIC50 (second compound 0.0316 µM) was over 8.02, the pIC50 (second compound 0.1 µM) was over 8.02 and the pIC50 (second compound 0.316 µM) was over 8.02. It also gave a pIC50 (second compound 1 µM) of over 8.02, a pIC50 (second compound 3.16 µM) of over 8.02 and a pIC50 (second compound 10 µM) of over 8.02. For the same compound, the viability, T/C (second compound 0.0316 µM, first compound 0.00949 µM) was 23.9%, the viability, T/C (second compound 0.0316 µM, first compound 0.03 µM) was 25.3% and the viability, T/C (second compound 0.0316 µM, first compound 0.0949 µM) was 16.4%. The viability, T/C (second compound 0.0316 µM, first compound 0.3 µM) was 12.5%, the viability, T/C (second compound 0.0316 µM, first compound 0.949 µM) was 12% and the viability, T/C (second compound 0.0316 µM, first compound 3 µM) was 10.4%. It also gave a viability, T/C (second compound 0.1 µM, first compound 0.00949 µM) of 24.4%, a viability, T/C (second compound 0.1 µM, first compound 0.03 µM) of 20.5% and a viability, T/C (second compound 0.1 µM, first compound 0.0949 µM) of 14.5%. For the same compound, the viability, T/C (second compound 0.1 µM, first compound 0.3 µM) was 11.9%, the viability, T/C (second compound 0.1 µM, first compound 0.949 µM) was 14.2% and the viability, T/C (second compound 0.1 µM, first compound 3 µM) was 9.19%. The viability, T/C (second compound 0.316 µM, first compound 0.00949 µM) was 20.4%, the viability, T/C (second compound 0.316 µM, first compound 0.03 µM) was 23.3% and the viability, T/C (second compound 0.316 µM, first compound 0.0949 µM) was 23.7%. It also gave a viability, T/C (second compound 0.316 µM, first compound 0.3 µM) of 17.2%, a viability, T/C (second compound 0.316 µM, first compound 0.949 µM) of 15.4% and a viability, T/C (second compound 0.316 µM, first compound 3 µM) of 14.9%. It also gave a viability, T/C (second compound 1 µM, first compound 0.00949 µM) of 22.8%, a viability, T/C (second compound 1 µM, first compound 0.03 µM) of 18% and a viability, T/C (second compound 1 µM, first compound 0.0949 µM) of 17.1%. It also gave a viability, T/C (second compound 1 µM, first compound 0.3 µM) of 18.5%, a viability, T/C (second compound 1 µM, first compound 0.949 µM) of 14.7% and a viability, T/C (second compound 1 µM, first compound 3 µM) of 10.9%. For the same compound, the viability, T/C (second compound 3.16 µM, first compound 0.00949 µM) was 23.8%, the viability, T/C (second compound 3.16 µM, first compound 0.03 µM) was 20.4% and the viability, T/C (second compound 3.16 µM, first compound 0.0949 µM) was 19.9%. For the same compound, the viability, T/C (second compound 3.16 µM, first compound 0.3 µM) was 15.4%, the viability, T/C (second compound 3.16 µM, first compound 0.949 µM) was 15.1% and the viability, T/C (second compound 3.16 µM, first compound 3 µM) was 11.3%. For the same compound, the viability, T/C (second compound 10 µM, first compound 0.00949 µM) was 21.5%, the viability, T/C (second compound 10 µM, first compound 0.03 µM) was 26% and the viability, T/C (second compound 10 µM, first compound 0.0949 µM) was 16.2%. For the same compound, the viability, T/C (second compound 10 µM, first compound 0.3 µM) was 12.8%, the viability, T/C (second compound 10 µM, first compound 0.949 µM) was 14.9% and the viability, T/C (second compound 10 µM, first compound 3 µM) was 8.96%.
`O=C(Nc1ccc(O)c(NS(=O)(=O)c2ccc(F)cc2)c1)c1ccc(-c2ccccc2)cc1` + Cc1cccc(N(C)C(=O)C2C(O)CCN2c2nc(C)cc(C(F)(F)F)c2C#N)c1 gave a pIC50 (second compound 0.0316 µM) of 5.03, a pIC50 (second compound 0.1 µM) of under 5.00 and a pIC50 (second compound 0.316 µM) of 5.19. It also gave a pIC50 (second compound 1 µM) of 5.25, a pIC50 (second compound 3.16 µM) of 5.23 and a pIC50 (second compound 10 µM) of 5.53. It also gave a viability, T/C [1] of 90.8%, a viability, T/C [2] of 98% and a viability, T/C [3] of 112%. The viability, T/C [4] was 126%, the viability, T/C [5] was 92.9% and the viability, T/C [6] was 47.3%. The viability, T/C [7] was 108%, the viability, T/C [8] was 87.9% and the viability, T/C [9] was 118%. The viability, T/C [10] was 65%, the viability, T/C [11] was 61.3% and the viability, T/C [12] was 39.4%. It also gave a viability, T/C [13] of 84.1%, a viability, T/C [14] of 109% and a viability, T/C [15] of 91.4%. It also gave a viability, T/C [16] of 121%, a viability, T/C [17] of 74.8% and a viability, T/C [18] of 35.2%. It also gave a viability, T/C [19] of 87.7%, a viability, T/C [20] of 95.4% and a viability, T/C [21] of 81.2%. For the same compound, the viability, T/C [22] was 105%, the viability, T/C [23] was 61.9% and the viability, T/C [24] was 37.9%. For the same compound, the viability, T/C [25] was 73.5%, the viability, T/C [26] was 59.4% and the viability, T/C [27] was 90.2%. It also gave a viability, T/C [28] of 73%, a viability, T/C [29] of 81.3% and a viability, T/C [30] of 28.3%. The viability, T/C [31] was 85.5%, the viability, T/C [32] was 81.3% and the viability, T/C [33] was 95.8%. It also gave a viability, T/C [34] of 81.3%, a viability, T/C [35] of 48.4% and a viability, T/C [36] of 26.8%.
